The results in this text go back to ChEMBL document CHEMBL4420079, “Methylamine derivatives as lysysl oxidase inhibitors for the treatment of cancer” (2017).

Calls of active or inactive are those of the source. The calls are words filed in the database; no cut-off is given here.

The nature of experiment [1]: Inhibition of pig skin LOX incubated for 45 mins by Amplex red dye based and HRP coupled assay. Details: species or system Sus scrofa.
Experiment [2] concerns the target T1, Protein-lysine 6-oxidase (Homo sapiens) (UniProt P28300).
T1 sequence (whole entry): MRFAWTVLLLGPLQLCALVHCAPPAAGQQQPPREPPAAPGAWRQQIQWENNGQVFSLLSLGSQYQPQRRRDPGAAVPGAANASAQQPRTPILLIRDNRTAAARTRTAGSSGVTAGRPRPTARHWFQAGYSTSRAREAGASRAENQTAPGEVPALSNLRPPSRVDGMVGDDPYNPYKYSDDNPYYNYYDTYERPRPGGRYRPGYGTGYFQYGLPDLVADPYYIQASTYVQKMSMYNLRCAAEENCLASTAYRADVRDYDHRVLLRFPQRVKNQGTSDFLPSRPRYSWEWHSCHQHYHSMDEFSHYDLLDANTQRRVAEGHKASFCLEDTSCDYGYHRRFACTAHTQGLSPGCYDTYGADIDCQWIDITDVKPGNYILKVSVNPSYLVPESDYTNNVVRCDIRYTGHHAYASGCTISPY
The following applies: MDA-MB-231, 1 mM.

With `NCc1ncc(S(=O)(=O)c2ccc3ccccc3c2)s1`, the IC50 in experiment [1] was 1400 nM.
As for `N#CCCN`, the inhibition entry in experiment [2] was “Active”.

By IC50 is commonly meant the point on the concentration scale where inhibition reaches its midpoint. A higher IC50 goes with lower potency.
